# Reference: patent US9765105B2, “Macrolide compound” (Pulike Biological Engineering, Inc., priority 2013, dated 2017)
# Columns and labels:
# Experiment in all cases: in vitro susceptibility, MIC by mini broth dilution
# Type in all cases: cell-based
# [1] = tested on: Staphylococcus aureus CVCC26003; details: strain CVCC26003
# Protocol: (§1) in vitro tests of susceptibility of the compounds according to the present disclosure against bacterial strains commonly used in laboratories. In accordance with the Performance Standards for Antimicrobial Disk Susceptibility Tests: Approved Standard published by the US National Committee for Clinical Laboratory Standards, the antibacterial activities of compounds prepared according to examples 5 to 187 were tested. The MICs (minimum inhibitory concentration) of the medicaments prepared according to the examples on the following bacterial strains were measured through mini broth dilution technique. Staphylococcus aureus CVCC26003, Streptococcus equines CVCC556. Actinobacillus pleuropneumoniae CVCC262, Haemophilus parasuis, and Pasteurella multocida CVCC399, which were purchased from the Control Institute of Veterinary Bioproducts and Pharmaceuticals, China. 4.1.1 Culture Medium for Staphylococcus aureus CVCC26003 Liquid culture medium: CAMHB. […] Solid culture medium: NINA prepared according to the specification of the final product. The strains were taken out of a refrigerator at −20° C. to be revived, and were spreaded by streaking on the solid culture medium with an inoculating loop. The inoculated culture medium was cultured at 35° C. in a constant temperature incubator for 20 h. […] were selected from a well-grown culture plate and streaked on the solid culture medium. The inoculated culture medium was cultured at 35° C. in the constant temperature incubator for 20 h. […] A 96-well plate was used, and 100 μl of DMSO was added into each of wells 2 to 11, and 200 μl of ready-prepared medicament solution was added into the 1st well, 100 μl of the medicament solution was extracted from the 1st well and added into the 2nd well. Double dilution was performed until the 11th well, thereby forming 11 gradients. In this case, compound of parent plate was prepared. 3 μl of double diluted medicament solution was extracted with a 12-channel pipettor and added into wells 1-11 of a new disposable 96-well culture plate. The 12th well thereof is a control well. For each medicament, there are two adjacent rows which are parallel. The transferred compound plate was reserved for later use. […] The dilution ratio was recorded, and the bacterial liquid for the tests was diluted according to the recorded dilution ratio. Subsequently, the bacterial suspension and the liquid culture medium were diluted in the proportion of 1:200. The diluted solution was reserved for later use.
# Haemophilus parasuis = tested on: Haemophilus parasuis
# Protocol: as §1, with “China. 4.1.2” for “China. 4.1.1”, “Culture Media” for “Culture Medium”, “for the Rest Four Bacterial Strains.” for “for Staphylococcus aureus CVCC26003”, “medium:” for “medium: CAMHB.”, “medium: […]” for “medium: NINA prepared according to the specification of the final product.”
# [2] = tested on: Pasteurella multocida CVCC399; details: strain CVCC399
# Protocol: as §1, with “China. 4.1.2” for “China. 4.1.1”, “Culture Media” for “Culture Medium”, “for the Rest Four Bacterial Strains.” for “for Staphylococcus aureus CVCC26003”, “medium:” for “medium: CAMHB.”, “medium: […]” for “medium: NINA prepared according to the specification of the final product.”
# [3] = tested on: Actinobacillus pleuropneumoniae CVCC262; details: strain CVCC262
# Protocol: as §1, with “China. 4.1.2” for “China. 4.1.1”, “Culture Media” for “Culture Medium”, “for the Rest Four Bacterial Strains.” for “for Staphylococcus aureus CVCC26003”, “medium:” for “medium: CAMHB.”, “medium: […]” for “medium: NINA prepared according to the specification of the final product.”
# [4] = tested on: Streptococcus equines CVCC556; details: strain CVCC556
# Protocol: as §1, with “China. 4.1.2” for “China. 4.1.1”, “Culture Media” for “Culture Medium”, “for the Rest Four Bacterial Strains.” for “for Staphylococcus aureus CVCC26003”, “medium:” for “medium: CAMHB.”, “medium: […]” for “medium: NINA prepared according to the specification of the final product.”
Compound,"MIC values, Staphylococcus aureus CVCC26003 [1] [ug/mi]","MIC values, Haemophilus parasuis (Haemophilus parasuis)","MIC values, Pasteurella multocida CVCC399 [2]","MIC values, Actinobacillus pleuropneumoniae CVCC262 [3] [ug/mi]","MIC values, Streptococcus equines CVCC556 [4]"
"CC[C@H]1OC(=O)[C@H](C)[C@@H](O[C@H]2C[C@@](C)(OC)[C@](O)(CNCC(O)c3ccccc3)[C@H](C)O2)[C@H](C)[C@@H](O[C@@H]2O[C@H](C)C[C@H](N(C)C)[C@H]2O)[C@](C)(O)C[C@@H](C)NC[C@H](C)[C@@H](O)[C@]1(C)O (stereo partly drawn) [syzx-52, (2R,3S,4R,5S,8R,10R,11R,12S,13S,14R)-13-[(2,6-dideoxy-3-C-methyl-3-O-methyl-4-C-[(2-hydroxy-2-phenyl-ethylamino)-methyl]-α-L-ribopyranosyl)oxy]-2-ethyl-3,4,10-trihydroxy-3,5,8,10,12,14-hexamethyl-11-[[3,4,6-trideoxy-3-(dimethylamino)-β-D-xylo-hexopyranosy]oxy]-1-oxa-7-azacyclopentadecan-15-one]",0.5,≦0.25 ug/mi,0.5 ug/mi,32,0.5 ug/mi
"CC[C@H]1OC(=O)[C@H](C)[C@@H](O[C@H]2C[C@@](C)(OC)[C@](O)(CNC(=O)C(F)(F)F)[C@H](C)O2)[C@H](C)[C@@H](O[C@@H]2O[C@H](C)C[C@H](N(C)C)[C@H]2O)[C@](C)(O)C[C@@H](C)NC[C@H](C)[C@@H](O)[C@]1(C)O [syzx-37, (2R,3S,4R,5S,8R,10R,11R,12S,13S,14R)-13-[(2,6-dideoxy-3-C-methyl-3-O-methyl-4-C-[[2,2,2-trifluoroacetyl-amino]-methyl]-α-L-ribopyranosyl)oxy]-2-ethyl-3,4,10-trihydroxy-3,5,8,10,12,14-hexamethyl-11-[[3,4,6-trideoxy-3-(dimethylamino)-β-D-xylo-hexopyranosy]oxy]-1-oxa-7-azacyclopentadecan-15-one]",0.5,0.5 ug/mi,1 ug/mi,32,≦0.25 ug/mi
CCCN1C[C@H](C)[C@@H](O)[C@](C)(O)[C@@H](CC)OC(=O)[C@H](C)[C@@H](O[C@H]2C[C@@](C)(OC)[C@](O)(CNC(C)(C)C)[C@H](C)O2)[C@H](C)[C@@H](O[C@@H]2O[C@H](C)C[C@H](N(C)C)[C@H]2O)[C@](C)(O)C[C@H]1C [syzx-1 14],0.25,0.25 ug/mi,0.25 ug/mi,0.25,0.25 ug/mi
"CC[C@H]1OC(=O)[C@H](C)[C@@H](O[C@H]2C[C@@](C)(OC)[C@](O)(CNCc3ccco3)[C@H](C)O2)[C@H](C)[C@@H](O[C@@H]2O[C@H](C)C[C@H](N(C)C)[C@H]2O)[C@](C)(O)C[C@@H](C)NC[C@H](C)[C@@H](O)[C@]1(C)O [syzx-71, (2R,3S,4R,5S,8R,10R,11R,12S,13S,14R)-13-[(2,6-dideoxy-3-C-methyl-3-O-methyl-4-C-[(2-furfuryl-amino)-methyl]-α-L-ribopyranosyl)oxy]-2-ethyl-3,4,10-trihydroxy-3,5,8,10,12,14-hexamethyl-11-[[3,4,6-trideoxy-3-(dimethylamino)-β-D-xylo-hexopyranosy]oxy]-1-oxa-7-azacyclopentadecan-15-one]",8,8 ug/mi,≦0.25 ug/mi,16,≦0.25 ug/mi
"CC[C@H]1OC(=O)[C@H](C)[C@@H](O[C@H]2C[C@@](C)(OC)[C@](O)(CNCCc3ccncc3)[C@H](C)O2)[C@H](C)[C@@H](O[C@@H]2O[C@H](C)C[C@H](N(C)C)[C@H]2O)[C@](C)(O)C[C@@H](C)NC[C@H](C)[C@@H](O)[C@]1(C)O [syzx-91, (2R,3S,4R,5S,8R,10R,11R,12S,13S,14R)-13-[(2,6-dideoxy-3-C-methyl-3-O-methyl-4-C-[(2-pyridin-4-yl-ethylamino)-methyl]-α-L-ribopyranosyl)oxy]-2-ethyl-3,4,10-trihydroxy-3,5,8,10,12,14-hexamethyl-11-[[3,4,6-trideoxy-3-(dimethylamino)-β-D-xylo-hexopyranosy]oxy]-1-oxa-7-azacyclopentadecan-15-one]",4,2 ug/mi,2 ug/mi,2,1 ug/mi
"CC[C@H]1OC(=O)[C@H](C)[C@@H](O[C@H]2C[C@@](C)(OC)[C@](O)(CNCCCC(=O)O)[C@H](C)O2)[C@H](C)[C@@H](O[C@@H]2O[C@H](C)C[C@H](N(C)C)[C@H]2O)[C@](C)(O)C[C@@H](C)NC[C@H](C)[C@@H](O)[C@]1(C)O [syzx-42, (2R,3S,4R,5S,8R,10R,11R,12S,13S,14R)-13-[(2,6-dideoxy-3-C-methyl-3-O-methyl-4-C-[[butyrate-4-amino]-methyl]-α-L-ribopyranosyl)oxy]-2-ethyl-3,4,10-trihydroxy-3,5,8,10,12,14-hexamethyl-11-[[3,4,6-trideoxy-3-(dimethylamino)-β-D-xylo-hexopyranosy]oxy]-1-oxa-7-azacyclopentadecan-15-one]",2,1 ug/mi,2 ug/mi,1,1 ug/mi

# Continued, values first:
"MIC values, Staphylococcus aureus CVCC26003 [1] [ug/mi]","MIC values, Haemophilus parasuis (Haemophilus parasuis)","MIC values, Pasteurella multocida CVCC399 [2]","MIC values, Actinobacillus pleuropneumoniae CVCC262 [3] [ug/mi]","MIC values, Streptococcus equines CVCC556 [4]",Compound
1,1 ug/mi,4 ug/mi,1,0.25 ug/mi,CCCN1C[C@H](C)[C@@H](O)[C@](C)(O)[C@@H](CC)OC(=O)[C@H](C)[C@@H](O[C@H]2C[C@@](C)(OC)[C@](O)(Cn3ccnc3C)[C@H](C)O2)[C@H](C)[C@@H](O[C@@H]2O[C@H](C)C[C@H](N(C)C)[C@H]2O)[C@](C)(O)C[C@H]1C [syzx-238]
2,4 ug/mi,8 ug/mi,4,0.25 ug/mi,CCCN1C[C@H](C)[C@@H](O)[C@](C)(O)[C@@H](CC)OC(=O)[C@H](C)[C@@H](O[C@H]2C[C@@](C)(OC)[C@](O)(CNc3cc(Cl)ccc3C)[C@H](C)O2)[C@H](C)[C@@H](O[C@@H]2O[C@H](C)C[C@H](N(C)C)[C@H]2O)[C@](C)(O)C[C@H]1C [syzx-234]
2,2 ug/mi,4 ug/mi,2,0.25 ug/mi,CCCN1C[C@H](C)[C@@H](O)[C@](C)(O)[C@@H](CC)OC(=O)[C@H](C)[C@@H](O[C@H]2C[C@@](C)(OC)[C@](O)(CNCC3CCCCC3)[C@H](C)O2)[C@H](C)[C@@H](O[C@@H]2O[C@H](C)C[C@H](N(C)C)[C@H]2O)[C@](C)(O)C[C@H]1C [syzx-167]
